Laboratory results reported in patent US20240218022A1, “ANTI-VISTA MACROCYCLIC PEPTIDES AND COMPOSITIONS” (BRISTOL-MYERS SQUIBB COMPANY, priority 2022, published 2024).
Read-outs that look alike come from different tables or passages of the source. Starred links: 1 amine or outer side, 2 acyl side, 3 side chain; linkers in the order of their positions; H or OH if unused. Positions of bridges follow the written chain, without caps; N, C: chain ends. Non-standard residues stand in square brackets, D forms with d. Residues, ends and D or L forms follow the SMILES beside them. ξ: configuration not given here. Phe(3-Me) = Cc1cccc(C[C@H](N)C(=O)O)c1; Phe(4-Me) = Cc1ccc(C[C@H](N)C(=O)O)cc1; γGlu = O=C(O)[C@H](CCC(=O)[*:2])N[*:1]; 2Nal = N[C@@H](Cc1ccc2ccccc2c1)C(=O)O; βAsp = O=C(O)[C@H](CC(=O)[*:2])N[*:1]; Val(3-OH) = CC(C)(O)[C@H](N)C(=O)O; Pro(4ξ-F) = O=C(O)[C@@H]1CC(F)CN1; NMeF = CN[C@@H](Cc1ccccc1)C(=O)O; Ile(3ξ) = CCC(C)[C@H](N)C(=O)O; Ahp(2) = CCCCC[C@H](N)C(=O)O; NMeNle = CCCC[C@H](NC)C(=O)O; Tle = CC(C)(C)[C@H](N)C(=O)O; NHexGly = CCCCCCNCC(=O)O; NMeA = CN[C@@H](C)C(=O)O; Nle = CCCC[C@H](N)C(=O)O; Orn = NCCC[C@H](N)C(=O)O; Aun = NCCCCCCCCCCC(=O)O; AEEA = NCCOCCOCC(=O)O

Molecular target: T1, mouse VISTA (mVISTA) (Mus musculus, UniProt Q9D659)
T1 construct: expressed in transfected cells; host or cells: Human embryonic kidney 293T cells
T1 sequence (Q9D659 33-308): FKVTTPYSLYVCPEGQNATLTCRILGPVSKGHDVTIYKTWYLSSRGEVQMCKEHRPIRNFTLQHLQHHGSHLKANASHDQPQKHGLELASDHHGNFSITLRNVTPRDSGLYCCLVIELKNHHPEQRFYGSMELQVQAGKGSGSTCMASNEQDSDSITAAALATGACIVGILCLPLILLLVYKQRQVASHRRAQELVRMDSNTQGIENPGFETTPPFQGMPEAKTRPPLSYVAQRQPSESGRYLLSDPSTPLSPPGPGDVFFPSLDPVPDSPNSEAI
Assay: Cell-Based Binding High-Content Assay For mVISTA (HC CBA mVISTA)
Outline: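 mVISTA-293T, 4,000 cells/well; cpd ± washout step; biotin-peptide 2 nM final, 30 min RT; SA-Alexa 647 30 min; formaldehyde/Hoechst fix; HCS imaging; 4PL IC50.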

Work on CCCCCCN1CC(=O)N[C@@H](Cc2ccc(O)cc2)C(=O)N[C@@H](CCCC)C(=O)N[C@@H](CC(N)=O)C(=O)N[C@@H](CCCNC(=N)N)C(=O)N(C)[C@@H](CCCC)C(=O)N[C@@H](CCCCC)C(=O)N(C)[C@@H](C)C(=O)N[C@@H](C(C)CC)C(=O)N[C@@H](CO)C(=O)N[C@H](C(=O)N[C@@H](CC(=O)NCCOCCOCC(=O)NCCCCCCCCCCC(=O)O)C(=O)O)CSCC(=O)N[C@@H](Cc2ccccc2)C(=O)N[C@@H](Cc2c[nH]c3ccccc23)C(=O)N[C@@H](CC(=O)O)C1=O (some centres unmarked) [Example 2171] ({CH2CO}-FWD[NHexGly]Y[Nle]NR[NMeNle][Ahp(2)][NMeA][Ile(3ξ)]SC[βAsp][AEEA][Aun]-OH; thioether N-14) yielded an IC50 (read-out: HC CBA mVISTA IC50) of 28.8 nM.

CCCCCCN1CC(=O)N[C@@H](Cc2ccc(O)cc2)C(=O)N[C@@H](CC(C)C)C(=O)N[C@@H](CC(N)=O)C(=O)N[C@@H](CCCNC(=N)N)C(=O)N[C@@H](CC(C)C)C(=O)N[C@@H](CCCCC)C(=O)N2CCC[C@H]2C(=O)N[C@@H](C(C)C)C(=O)N[C@@H](CO)C(=O)N[C@H](C(=O)N[C@@H](CCC(=O)NCCOCCOCC(=O)N[C@@H](CC(=O)O)C(=O)NCCOCCOCC(=O)NCCCCCCCCCCC(=O)O)C(=O)O)CSCC(=O)N[C@@H](Cc2ccccc2)C(=O)N[C@@H](Cc2ccc(O)cc2)C(=O)N[C@@H](CC(=O)O)C1=O [compound 2002] ({CH2CO}-FYD[NHexGly]YLNRL[Ahp(2)]PVSC[γGlu][AEEA]D[AEEA][Aun]-OH; thioether N-14) was tested, and the IC50 (cell-based binding high-content assay, mVISTA, read-out: HC CBA miPr ISTA IC50) was 19.6 nM.

Compound CCCCCCN1CC(=O)N[C@@H](Cc2ccc(O)cc2)C(=O)N[C@@H](CCCC)C(=O)NCC(=O)N[C@@H](CCCNC(=N)N)C(=O)N[C@@H](CC(C)C)C(=O)N[C@@H](CCCCC)C(=O)N2CCC[C@H]2C(=O)N[C@@H](C(C)C)C(=O)N[C@@H](CC(=O)O)C(=O)N[C@H](C(=O)NCC(=O)O)CSCC(=O)N[C@@H](Cc2ccc3ccccc3c2)C(=O)N[C@@H](Cc2ccc(O)cc2)C(=O)N[C@@H](CC(=O)O)C1=O [Ex 1285] ({CH2CO}-[2Nal]YD[NHexGly]Y[Nle]GRL[Ahp(2)]PVDCG-OH; thioether N-14) has an IC50 (cell-based binding high-content assay, mVISTA, the 16th table, read-out: HC CBA mVISTA IC50) of 8.3 nM.

CCCCCCN1CC(=O)N[C@@H](Cc2ccc(O)cc2)C(=O)N[C@@H](CCCC)C(=O)N[C@@H](CC(N)=O)C(=O)N[C@@H](CCCNC(=N)N)C(=O)N[C@@H](CC(C)C)C(=O)N[C@@H](CCCCC)C(=O)N2CCC[C@H]2C(=O)N[C@@H](C(C)C)C(=O)N[C@@H](CC(=O)O)C(=O)N[C@H](C(=O)NCC(=O)O)CSCC(=O)N[C@@H](Cc2ccccc2)C(=O)N[C@@H](Cc2cccc(C)c2)C(=O)N[C@@H](CC(=O)O)C1=O [compound 1329] ({CH2CO}-F[Phe(3-Me)]D[NHexGly]Y[Nle]NRL[Ahp(2)]PVDCG-OH; thioether N-14) was tested, and the IC50 (read-out: HC CBA mVISTA IC50) was 4.5 nM.

CCCCCCN1CC(=O)N[C@@H](Cc2ccc(O)cc2)C(=O)N[C@@H](CCCC)C(=O)N[C@@H](CC(N)=O)C(=O)N[C@@H](CCCNC(=N)N)C(=O)N(C)[C@@H](CCCC)C(=O)N[C@@H](CCCCC)C(=O)N2CCC[C@H]2C(=O)N[C@@H](C(C)(C)O)C(=O)N[C@@H](CO)C(=O)N[C@H](C(=O)NCCOCCOCC(=O)N[C@@H](CCC(=O)NCCOCCOCC(=O)NCCCCCCCCCCC(=O)O)C(=O)O)CSCC(=O)N[C@@H](Cc2ccccc2)C(=O)N[C@@H](Cc2c[nH]c3ccccc23)C(=O)N[C@@H](CC(=O)O)C1=O [compound 2250] ({CH2CO}-FWD[NHexGly]Y[Nle]NR[NMeNle][Ahp(2)]P[Val(3-OH)]SC[AEEA][γGlu][AEEA][Aun]-OH; thioether N-14) gave an IC50 (read-out: HC CBA mVISTA IC50) of 50.4 nM.

CCCCCCN1CC(=O)N[C@@H](Cc2ccc(O)cc2)C(=O)N[C@@H](CC(C)C)C(=O)N[C@@H](CC(N)=O)C(=O)N[C@@H](CCCNC(=N)N)C(=O)N(C)[C@@H](CCCC)C(=O)N[C@@H](CCCCC)C(=O)N2CCC[C@H]2C(=O)N[C@@H](C(C)(C)C)C(=O)N[C@@H](CO)C(=O)N[C@H](C(=O)NCC(N)=O)CSCC(=O)N[C@@H](Cc2ccccc2)C(=O)N[C@@H](Cc2ccc(C)cc2)C(=O)N[C@@H](CC(=O)O)C1=O [compound 1349] ({CH2CO}-F[Phe(4-Me)]D[NHexGly]YLNR[NMeNle][Ahp(2)]P[Tle]SCG-NH2; thioether N-14) was tested, and the IC50 (read-out: HC CBA mVISTA IC50) was 43.6 nM.

With CCCCCCN1CC(=O)N[C@@H](Cc2ccc(O)cc2)C(=O)N[C@@H](CCCC)C(=O)N[C@@H](CC(N)=O)C(=O)N[C@@H](CCCNC(=N)N)C(=O)N(C)[C@@H](CCCC)C(=O)N[C@@H](CCCCC)C(=O)N2CC(F)C[C@H]2C(=O)N[C@@H](C(C)C)C(=O)N[C@@H](CO)C(=O)N[C@H](C(=O)N[C@@H](CC(=O)NCCOCCOCC(=O)NCCCCCCCCCCC(=O)O)C(=O)O)CSCC(=O)N[C@@H](Cc2ccccc2)C(=O)N[C@@H](Cc2c[nH]c3ccccc23)C(=O)N[C@@H](CC(=O)O)C1=O (some centres unmarked) [Example 2196] ({CH2CO}-FWD[NHexGly]Y[Nle]NR[NMeNle][Ahp(2)][Pro(4ξ-F)]VSC[βAsp][AEEA][Aun]-OH; thioether N-14) the IC50 (read-out: HC CBA mVISTA IC50) was 28.4 nM.

CCCCCCN1CC(=O)N[C@@H](Cc2ccc(O)cc2)C(=O)N[C@@H](CCCC)C(=O)N[C@@H](CC(N)=O)C(=O)N[C@@H](CCCNC(=N)N)C(=O)N(C)[C@@H](Cc2ccccc2)C(=O)N[C@@H](CCCCC)C(=O)N2CCC[C@H]2C(=O)N[C@@H](C(C)C)C(=O)N[C@@H](CO)C(=O)N[C@H](C(=O)N[C@@H](CC(=O)NCCOCCOCC(=O)NCCCCCCCCCCC(=O)O)C(=O)O)CSCC(=O)N[C@@H](Cc2ccccc2)C(=O)N[C@@H](Cc2c[nH]c3ccccc23)C(=O)N[C@@H](CC(=O)O)C1=O [Example 2177] ({CH2CO}-FWD[NHexGly]Y[Nle]NR[NMeF][Ahp(2)]PVSC[βAsp][AEEA][Aun]-OH; thioether N-14) showed an IC50 (read-out: HC CBA mVISTA IC50) of 38.4 nM.

CCCCCCN1CC(=O)N[C@@H](Cc2ccc(O)cc2)C(=O)N[C@@H](CCCC)C(=O)N[C@@H](CC(N)=O)C(=O)N[C@@H](CCCN)C(=O)N(C)[C@@H](CCCC)C(=O)N[C@@H](CCCCC)C(=O)N2CCC[C@H]2C(=O)N[C@@H](C(C)(C)C)C(=O)N[C@@H](CC(=O)O)C(=O)N[C@H](C(=O)NCC(N)=O)CSCC(=O)N[C@@H](Cc2ccccc2)C(=O)N[C@@H](Cc2c[nH]c3ccccc23)C(=O)N[C@@H](CC(=O)O)C1=O [Example 1394] ({CH2CO}-FWD[NHexGly]Y[Nle]N[Orn][NMeNle][Ahp(2)]P[Tle]DCG-NH2; thioether N-14) was tested, and the IC50 (read-out: HC CBA mVISTA IC50) was 34.8 nM.

For CCCCCCN1CC(=O)N[C@@H](Cc2ccc(O)cc2)C(=O)N[C@@H](CCCCC)C(=O)N[C@@H](CC(N)=O)C(=O)N[C@@H](CCCNC(=N)N)C(=O)N[C@@H](CC(C)C)C(=O)N[C@@H](CCCCC)C(=O)N2CCC[C@H]2C(=O)N[C@@H](C(C)C)C(=O)N[C@@H](CO)C(=O)N[C@H](C(=O)NCC(=O)O)CSCC(=O)N[C@@H](Cc2ccccc2)C(=O)N[C@@H](Cc2c[nH]c3ccccc23)C(=O)N[C@@H](CC(=O)O)C1=O [Example 1357] ({CH2CO}-FWD[NHexGly]Y[Ahp(2)]NRL[Ahp(2)]PVSCG-OH; thioether N-14), the IC50 (read-out: HC CBA mVISTA IC50) was 31.6 nM.

In the case of CCCCCCN1CC(=O)N[C@@H](Cc2ccc(O)cc2)C(=O)N[C@@H](CCCC)C(=O)N[C@@H](CC(=O)O)C(=O)N[C@@H](CCCNC(=N)N)C(=O)N[C@@H](CC(C)C)C(=O)N[C@@H](CCCCC)C(=O)N2CCC[C@H]2C(=O)N[C@@H](C(C)C)C(=O)N[C@@H](C(C)C)C(=O)N[C@H](C(=O)NCC(=O)O)CSCC(=O)N[C@@H](Cc2ccccc2)C(=O)N[C@@H](Cc2ccc(O)cc2)C(=O)N[C@@H](CC(=O)O)C1=O [Example 1065] ({CH2CO}-FYD[NHexGly]Y[Nle]DRL[Ahp(2)]PVVCG-OH; thioether N-14), the IC50 (293T cells expressing mouse VISTA, competition with biotinylated peptide (2 nM), read-out: HC CBA mVISTA IC50) is reported as 15.6 nM.
